Counter-ions that a name gives are not always drawn.

The target in series [1] is DGAT2 in human hepatocytes (Homo sapiens (Human), UniProt Q96PD7). In words: Determination of IC50 values for DGAT2 inhibitors in human hepatocytes. Type of series: cell-based. The note with it: inhibition of DGAT2 in human hepatocytes; geometric mean. The method, then:
For evaluation of the effects of DGAT2 inhibitors in a cell-based setting, cryopreserved human hepatocytes (Lot DOO, Celsis, Baltimore, Md.) were thawed and plated onto type I collagen-coated plates according to the manufacturer's instructions. After 18 hours overnight recovery period, the cells were overlayed with media containing 250 μg/mL Geltrex Basement Membrane Matrix (Thermo Fisher). The following day, media was aspirated and replaced with serum-free Williams Media E (Thermo Fisher) containing 400 μM sodium dodecanoate (Sigma-Aldrich, St. Louis, Mo.) and 2 mM GlutaMAX (Thermo Fisher). […] DGAT2 inhibitors were then added to the desired final concentration. After a 15 minute preincubation, 0.2 μCi [^14C(U)]-glycerol (Perkin Elmer) was added to each well followed by a 3 hour incubation. At this point the media was removed, and the cells lysed via orbital shaking in isopropyl alcohol:tetrahydrofuran (9:1) for 15 minutes prior to centrifugation at 3000 rpm for 10 minutes. Radiolabeled lipids were resolved using a solvent system by thin layer chromatography with the solvent consisting of hexanes:diethyl ether:glacial acetic acid (75:23:2, v/v/v). After separation, radiolabeled lipids were visualized using the Typhoon 9500 phosphorimaging system (GE). The half maximal inhibitory concentrations (IC50 values) were determined by nonlinear regression analysis of the % inhibition dose response curve using GraphPad Prism (GraphPad Software, Inc., La Jolla, Calif.).
Table 5 below provides the IC50 values of selected Examples for inhibition of DGAT2 in human hepatocytes in accordance with the above-described assay. Results are reported as geometric mean IC50 values, with the number of replicates (n) shown.

Series [2] in a line: Intrinsic clearance in human liver microsomes. Type of series: in vitro ADME. The note with it: 1 μM test compound, mean +/− STD Dev; for microsomal CLint at 1 μM: human, pooled human liver microsomes, pH 7.4, human liver microsome assay; for CLint (+/−STD Dev): human liver microsome assay. The method, then: The incubations were conducted at 37° C. […] (Sorvall R C 3C Plus, Thermo Scientific, Waltham, Mass.).

Series [3] can be described thus: Intrinsic clearance in human hepatocytes (relay method). The series is classed as in vitro ADME. The note with it: cryopreserved human hepatocytes (suspension), relay hepatocyte assay, 1 μM test compound, mean +/− Std Dev. The method, then: (§1) Cryopreserved human hepatocytes (Lot DCM from BioreclamationIVT) were used. […] At time 0 and 4 h, 25 μL of hepatocyte suspension was removed from the incubation and added to 50 μL of ice-cold acetonitrile (containing metoprolol, indomethacin, and terfenadine as internal standards) to quench the reaction. The samples were centrifuged (Eppendorf, Hauppauge, N.Y.) at 3000 rpm (1439×g) for 10 min at room temperature, and 50 μL of supernatant was transferred to a clean plate, dried completely, and reconstituted before liquid chromatography/tandem mass spectrometry (LC-MS/MS) analysis. The remaining hepatocyte suspensions in the incubation plate were centrifuged (3000 rpm, 1439×g, 10 min, room temperature). The supernatant of 300 μL was transferred to a clean 24-well plate and stored at −80° C. until the next relay experiment. For the second relay experiment, the supernatant plates were warmed first to room temperature for 30 minutes, then to 37° C. for 30 min, and hepatocytes were added to the samples to give a final cell density of 0.5 million cells/mL. The plates were incubated at 37° C. for 4 h, sampled, and processed as described above. Five relays were performed to give a total incubation time of 20 h, with sampling points at (0, 4, 8, 12, 16 and 20 h). The concentrations of test compound determined at each time point by the LC-MS/MS analysis were used to calculate the intrinsic clearance.

Series [4] is described as follows: Determination of pKa (capillary electrophoresis, Analiza). The series is classed as physicochemical. The note with it: most basic pKa, mean.
The nature of series [5]: High throughput determination of intrinsic clearance in human hepatocytes. The series is classed as in vitro ADME. The note with it: human, pooled cryopreserved human hepatocytes (suspension), high throughput human hepatocyte assay, 1 μM test compound; mean +/− Std Dev. The method, then: (§2) The incubation was carried out at 37° C. […] The samples were centrifuged (Eppendorf, Hauppauge, N.Y.) at 3000 rpm for 5 min at 4° C.

Series [6] has as its system human hepatocytes. In words: Intrinsic clearance in human hepatocytes (relay method). The series is classed as in vitro ADME. As to conditions: relay hepatocyte assay, 1 μM test compound, mean +/− Std Dev. The method, then: as §1
The subject of series [7] is human hepatocytes. In words: High throughput determination of intrinsic clearance in human hepatocytes. The series is classed as in vitro ADME. As to conditions: high throughput human hepatocyte assay, 1 μM test compound; mean +/− Std Dev. On the procedure:
as §2

Series [8] deals with human DGAT2 (hDGAT2) (Homo sapiens (Human), UniProt Q96PD7). In words: In vitro DGAT2 assay, determination of IC50 values for DGAT2 inhibitors. The series is classed as biochemical. The note with it: inhibition of DGAT2, hDGAT2 membrane fractions; geometric mean. The method, then:
Recombinant baculovirus for the FLAG-tagged hDGAT2 was generated in SF9 insect cells using Bac-to-Bac baculovirus expression system (Invitrogen) according to the manufacturer's protocol. For the expression of hDGAT2, SF9 cells (20 L) grown in Sf900II media were infected with hDGAT2 baculovirus at a multiplicity of infection of 1 in a Wave Bioreactor System 20/50P wave bag (GE Healthcare). After 40 hours of infection, the cells were then harvested by centrifugation at 5,000×g. The cell pellets were washed by resuspending in phosphate buffered saline (PBS) and collected by centrifugation at 5,000×g. The cell paste was flash frozen in liquid N2 and stored at −80° C. until needed. All operations below were at 4° C. unless otherwise noted. The cells were resuspended in lysis buffer (50 mM Tris-HCl, pH 8.0, 250 mM sucrose) including 1 mM ethylenediaminetetraacetic acid (EDTA) and the complete protease inhibitor cocktail (Roche Diagnostics) at a ratio of 3 mL buffer per 1 g cell paste. The cells were lysed by dounce homogenizer. The cell debris was removed by centrifugation at 1,000×g for 20 min, and the supernatant was centrifuged at 100,000×g for 1 hour. The resulting pellet was rinsed three times by filling ultracentrifuge tubes to the top with ice cold PBS before decanting. The washed pellet was resuspended with gentle stirring for 1 hour in lysis buffer containing 8 mM 3-[(3-cholamidopropyl)dimethylammonio]-1-propanesulfonate (CHAPS) at a ratio of 1 mL buffer per 1 g of original cell paste and centrifuged again at 100,000×g for 1 hour. The resulting supernatant was aliquotted, flash frozen in liquid N2, and stored at −80° C. until use.
To 1 μL of compounds dissolved in 100% DMSO and spotted at the bottom of each well, 5 μL of 0.04% bovine serum albumin (BSA) (fatty acid free, Sigma Aldrich) was added and the mixture was incubated at room temperature for 15 minutes. hDGAT2 membrane fractions were diluted in 100 mM Hepes-NaOH, pH 7.4, 20 mM MgCl2 containing 200 nM methyl arachidonyl fluorophosphonate (Cayman Chemical, dried from ethyl acetate stock solution under argon gas and dissolved in DMSO as 5 mM stock). 10 μL of this enzyme working solution was added to the plates and incubation continued for 2 hours at room temperature. DGAT2 reactions were initiated by the addition of 4 μL of substrates containing 30 μM [1-^14C]decanoyl-CoA (custom-synthesized by Perkin Elmer, 50 mCi/mmol) and 125 μM 1,2-didecanoyl-sn-glycerol (Avanti Polar Lipids) dissolved in 12.5% acetone. The reaction mixtures were incubated at room temperature for 40 min and the reactions were stopped by addition of 5 μL of 1% H3PO4. After the addition of 45 μL MicroScint-E (Perkin-Elmer), plates were sealed with Top Seal-A covers (Perkin-Elmer) and phase partitioning of substrates and products was achieved using a HT-91100 microplate orbital shaker (Big Bear Automation, Santa Clara, Calif.). Plates were centrifuged at 2,000×g for 1 minute in an Allegra 6R Centrifuge (Beckman Coulter) and then were sealed again with fresh covers before reading in a 1450 Microbeta Wallac Trilux Scintillation Counter (Perkin Elmer). DGAT2 activity was measured by quantifying the generated product [^14C]tridecanoylglycerol in the upper organic phase.
Inhibitors were tested at eleven different concentrations to generate IC50 values for each compound.

Chain of DGAT2 in human hepatocytes (Q96PD7 whole entry): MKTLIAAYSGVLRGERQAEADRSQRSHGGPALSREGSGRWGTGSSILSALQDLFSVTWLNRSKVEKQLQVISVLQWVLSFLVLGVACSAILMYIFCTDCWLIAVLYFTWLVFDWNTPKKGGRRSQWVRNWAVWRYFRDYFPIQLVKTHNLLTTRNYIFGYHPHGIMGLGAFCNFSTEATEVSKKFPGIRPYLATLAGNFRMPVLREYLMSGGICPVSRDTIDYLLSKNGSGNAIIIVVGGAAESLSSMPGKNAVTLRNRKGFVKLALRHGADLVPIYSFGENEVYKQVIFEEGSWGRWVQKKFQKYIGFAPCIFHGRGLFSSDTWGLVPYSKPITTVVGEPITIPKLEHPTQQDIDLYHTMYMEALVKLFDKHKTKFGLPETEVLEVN
Chain of human DGAT2 (hDGAT2) (Q96PD7 whole entry): as above

Turning to `CCOc1cccnc1Oc1cncc(-c2ncc(C(=O)N[C@@H]3CNCC[C@H]3F)cn2)c1` [Example 5, 2-{5-[(3-Ethoxypyridin-2-yl)oxy]pyridin-3-yl}-N-[(3R,4R)-4-fluoropiperidin-3-yl]pyrimidine-5-carboxamide], the IC50 in series [1] came out at 26 nM. In series [2], this molecule registered an intrinsic metabolic clearance (microsomal CLint) at 1 μM below 7 µL/min/mg. In addition, the figures for the hepatocyte CLint at 1 μM in series [3] and in series [5] were 1.9 µL/min/1e6 cells and below 1.9 µL/min/1e6 cells, respectively. In series [4], this molecule gave a pKa of 7.3.

Regarding `CCOc1cccnc1Oc1cncc(-c2ncc(C(=O)NC3(CO)CCOC3)cn2)c1` (single isomer, unassigned) [WO2018033832 Ex. 6a], the “CLint (+/−STD Dev)” value in series [2] was found to be 13 ± 2.0 µL/min/mg. Moreover, the “CLint (+/−Std Dev)” value is on record as 3.2 +/− 0.21 μL/min/million cells in series [6] and <3.8 +/− 1.1 μL/min/10^6 cells in series [7]. In addition, in series [4], the “Basic pKa” value was 2.3.

As for `CCOc1cccnc1Oc1cncc(-c2ncc(C(=O)N[C@H]3CCOC3)cn2)c1` [WO2018033832 Ex. 1], the IC50 was determined as 2.8 nM in series [1] and 17 nM in series [8]. The “CLint (+/−STD Dev)” value in series [2] came to 11 ± 2.9 µL/min/mg. The “CLint (+/−Std Dev)” value is 3.9 +/− 0.52 μL/min/million cells in series [6] and <3.8 +/− 1.1 μL/min/10^6 cells in series [7]. Moreover, the “Basic pKa” value in series [4] is 2.4.

As to `CCOc1cccnc1Oc1cncc(-c2ncc(C(=O)NC3(CO)CCOC3)cn2)c1` (single isomer, unassigned) [WO2018033832 Ex. 6b], the “CLint (+/−STD Dev)” value in series [2] is below 11 ± 3.5 µL/min/mg. Further, the entries for the “CLint (+/−Std Dev)” value in series [6] and in series [7] were 2.9 +/− 0.057 μL/min/million cells and <3.3 +/− 0.49 μL/min/10^6 cells, respectively. Besides, the “Basic pKa” value in series [4] amounted to 2.4.

Turning to `CCOc1cccnc1Oc1cncc(-c2ncc(C(=O)N[C@H]3CNC[C@@H](F)C3)cn2)c1` (racemic) [Example 25, rac-2-{5-[(3-ethoxypyridin-2-yl)oxy]pyridin-3-yl}-N-[(3R,5S)-5-fluoropiperidin-3-yl]pyrimidine-5-carboxamide, trifluoroacetate salt], the results for the IC50 in series [1] and in series [8] were above 130 nM and 200 nM, respectively. The molecule also returned a microsomal CLint at 1 μM in series [2] of 11 µL/min/mg. The same molecule displayed a pKa in series [4] of 6.8. In series [5], this molecule registered a hepatocyte CLint at 1 μM of 6.5 µL/min/1e6 cells.

Take `CCOc1cccnc1Oc1cncc(-c2ncc(C(=O)N[C@@H]3CCOC3)cn2)c1` [WO2018033832 Ex. 2]: the “CLint (+/−STD Dev)” value in series [2] worked out at 17 ± 1.3 µL/min/mg. For the same molecule, the “CLint (+/−Std Dev)” value is 4.9 +/− 0.17 μL/min/million cells in series [6] and 4.7 +/− 0.55 μL/min/10^6 cells in series [7]. The “Basic pKa” value in series [4] is on record as 2.5. The molecule further showed an IC50 in series [8] of 200 nM.
